In US20260092085A1, “SYNTHETIC TRIPLEX PEPTIDE NUCLEIC ACID-BASED INHIBITORS FOR CANCER THERAPY” (University of Connecticut, priority 2022, published 2026):

What was measured:
Mcl-1 and Caspase-3 = experiment: Western blot of Mcl-1 and Caspase-3 in U2932 cells; format: cell-based, human; conditions: U2932, 500 nM
Protocol: FIGS. 3A-F show cell culture-based functional assay in U2932 lymphoma cells. (3A) γtcPNA-155-TAMRA uptake in the U2932 lymphoma cell line: Representative flow cytometry traces of TAMRA fluorescence in U2932 cells after treatment with 500 nM dose of γtcPNA-155-TAMRA for 48 hours. The data was analyzed by FlowJo software. (3B) Normalized miR-155 gene expression levels in U2932 after treatment with phosphate buffer saline (PBS) as a control and with 500 nM dose of Scr-γtcPNA-155, PNA-155, γPNA-155 and γtcPNA-155 for 48 hours compared to average control U6 (n=3), data represented as mean±standard error mean (SEM), Statistical analysis was performed using Unpaired two-tailed t-test. […] (3E) Representative western blot of Mcl-1 and its quantification (n=3 technical replicate) and (3F) Caspase-3 protein and its quantification (n=3 technical replicate) in U2932 cell line after treatment with 500 nM of Scr-γtcPNA-155, PNA-155 and γtcPNA-155 for 48 hours. […] Numbers above western blot panels represent relative quantification of the respective bands using ImageJ software and normalized relative to loading control and treatment control.
FIGS. 5A-B show representative western blot of Mcl-1 (5A) and Caspase-3 (5B) and its quantification (n=3) obtained from U2932 cell line after treatment with 500 nM of Scr-γtcPNA-155, γPNA-155 and γtcPNA-155 for 48 hours. […]

SUDHL-2 cells = experiment: Cell viability by trypan blue assay, SUDHL-2; format: cell-based
Protocol: Cell viability was performed using trypan blue-based assay (n=3 technical triplicate), data represented as mean±(SEM), * represents the statistical analysis were performed relative to Scr-γtcPNA-155 and ♦ represent analysis performed relative to PNA-155. *p<0.05, **p<0.01, ***p<0.001 and ****p<0.0001, ♦p<0.05, ♦♦p<0.01, unpaired two-tailed t-test was used for statistical analysis. The experiment was repeated three times and in triplicate.
Cell viability was performed using trypan blue-based assay (n=3), data represented as mean±standard error mean (SEM), *p<0.05, **p<0.01. Unpaired two-tailed t-test was used for statistical analysis.
Cell viability was performed using trypan blue-based assay (n=3), data represented as mean±standard error mean (SEM).
Cell viability by trypan blue assay: Diffused large B cell lymphoma (DLBCL) cell lines like SUDHL-2 (ATCC® CRL-2956™) and SUDHL-5 (ATCC® CRL-2958™) cells were purchased from ATCC (Virginia, USA). The cells were regularly tested for Mycoplasma contamination using MycoAlert™ Mycoplasma detection kit (Lonza). All the cells used in the experiment were passaged less than 8 times. 10,000 U2932, SUDHL-5, or SUDHL-2 cells were plated in a 96 well plate. The cells were treated with different doses (500 nM, 1000 nM, 2000 nM and 4000 nM) of PNA-155, gamma tcPNA-155 or Scr-γtcPNA-155 for 48 hrs in an incubator (37° C. and 5% CO2). The dead cells were marked with trypan blue. Further counting was performed using an automated cell counter (Bio-rad).

Substance: γtcPNA-155: serine gamma tail-clamp anti-miR-155 PNA, RR-TJJJJ-OOO-ACCCCTATCACGATTAGCATTAA-RR, SEQ ID NO: 3 (all peptide nucleic acid (PNA); serine gamma PNA, tail-clamp TJJJJ via linkers, Arg-Arg at both ends)
- downregulation of Mcl-1 protein (western blot) (Mcl-1 and Caspase-3): 50%
- upregulation of Caspase-3 protein (western blot) (Mcl-1 and Caspase-3): 80%
- reduction in cell viability at 500 nM (SUDHL-2 cells; SUDHL-2, 500 nM, compared to PNA-155 treated group): significant reduction in cell viability
- decrease in cell viability (SUDHL-2 cells; SUDHL-2, 4UM, 48 hours): ~80%
